In patent US7049329B2, “Amines that inhibit a mammalian anandamide transporter, and methods of use thereof” (Sepracor Inc., priority 2002, dated 2006):
“And” between values parts separate entries of the source, which are not always exact repeats. Identical values can stand only once.

Legend:
mice = assay: Hot plate test in mice (nociceptive reaction latency); format: in vivo; details: i.v., Anandamide 20 mg/kg, Compound 4 10 mg/kg, cut-off 30 seconds; for Nociceptive Reaction Latency, Mean: N 10; for Nociceptive Reaction Latency, individual mice: hot plate 56° C.
Procedure: This experiment assessed the analgesic effects of anandamide, compound 4, and a combination of anadamide and compound 4 in the hot plate test in mice.
One hundred (100) male Swiss mice ICO: OF1 (IOPS Caw) (Iffa Credo, France) weighing 17 g to 23 g were used in the study. The mice were housed in a temperature (19.5–24.5° C.) and relative humidity (45–65%) controlled room with a 12-h light/dark cycle, with ad libitum access to filtered tap-water and standard pelleted laboratory chow (U.A.R., France) throughout the study. Upon receipt at animal facilities, they were housed 20 per cage and at least a 5-day acclimatization period was observed. Animals were individually identified on their tails.
Ten groups of 10 animals each were used in this study. The individual groups were treated as set forth below. The doses used are expressed in terms of free active substance. The test and reference substances and the vehicle were administered by intravenous route (i.v) in a random order with a volume of 5 mL/kg. Anandamide and compound 4 were concomitantly administered as a mixture by intravenous route under a volume of 10 mL/kg (Groups 3, 7 and 10).
Twenty, thirty and sixty minutes after dosing, a given mouse was placed on a metallic hot plate maintained at 56±0.2° C. The nociceptive reaction latency, characterized by a licking reflex of the forepaws or by a jumping off the hot plate, was recorded. The cut-off time was set to 30 seconds. See Eddy NB, Touchberry CF, Lieberman JE. “Synthetic analgesics.
The mean results from these experiments are presented graphically in FIG. 6. The results tabulated in FIG. 6 are expressed as mean±sem. ANOVA (2 ways): time/treatment's effect as well as interaction between the two, for vehicle, anandamide and association groups. Dunnett's test: * indicates a significant difference in comparison with the vehicle-treated group for P<0.05. Dunnett's test :† indicates a significant difference in comparison with the same treated group at t−60 min for P<0.05. ANOVA (1 ways): at t−30 min for vehicle, anandamide, compound 4 and association groups. Dunnett's test: ° indicates a significant difference in comparison with the vehicle-treated group for P<0.05. Vehicle: Saline+20% DMSO; n=10 mice per groups.

AT = details: background; read-out: IC50, inhibits AT; cited from earlier work
[1] = system: mammalian anandamide transporter; assay: Anandamide uptake functional assay; format: cell-based, human; details: reference compound; U-937 cells, [3H]-AEA uptake; read-out: IC50 of AM-404 in this assay
Procedure: The characterization of anandamide uptake was performed with human monocytes (U-937 cells), using a 96 wells format (volume of the reaction 500 μL). Uptake of radiolabelled anandamide by U-937 cells (10^5 cells in 400 μL/well) occured during a 15 minutes incubation time at 37° C. in the presence of test compounds added in solution in 50 μL and 50 μL of [^3H]-AEA (2 nM)/AEA (98 nM).
U-937 cells and [^3H]-AEA/AEA were prepared in a Krebs buffer pH 7.4 containing 25 mM NaHCO3, 11 mM glucose, 50 μM ascorbic acid and 1% BSA. This incubation buffer is oxygenated for 5 minutes before incubation. Basal control is incubated for 15 minutes at 4° C., in absence of any test or reference compound to prevent uptake.
Following incubation, uptake was stopped by filtration through a “unifilter 96-well GFB plate” (Packard) washed with Krebs buffer containing 25 mM NaHCO3 to eliminate the free [^3H]-AEA. The radioactivity associated with the U-937 cells corresponding to the uptake was retained on the unifilter and was measured with a Topcount Microplate Scintillation Counter, (Packard) using Microscint 0 scintillation liquid (Packard).
FIGS. 3–5 depict certain compounds of the present invention and their IC50 values as determined in this assay. […]

SMILES | Nociceptive Reaction Latency, Mean (mice; 20 minutes post-administration) [s] | Nociceptive Reaction Latency, individual mice (mice; 20 minutes post-administration) | Nociceptive Reaction Latency, Mean (mice; 30 minutes post-administration) [s] | Nociceptive Reaction Latency, individual mice (mice; 30 minutes post-administration) | Nociceptive Reaction Latency, Mean (mice; 60 minutes post-administration) [s] | Nociceptive Reaction Latency, individual mice (mice; 60 minutes post-administration) | IC50 (AT) [nM] | IC50 [1] [nM]
CCCCC/C=C\C/C=C\C/C=C\C/C=C\CCCC(=O)NCCO [Anandamide, N-(2-hydroxyethyl)arachidonamide] | 8.9 | 10.3 s and 21.2 s and 6.3 s and 8.8 s and 4.9 s and 5.3 s and 8.1 s and 7.8 s and 5.1 s and 11.5 s | 8.1 | 8.9 s and 7.5 s and 10.7 s and 7.9 s and 5.2 s and 9.7 s and 10 s and 7.1 s and 6.5 s and 7.8 s | 11.7 | 6.9 s and 11.1 s and 10.1 s and 9.3 s and 11.7 s and 8.9 s and 16.1 s and 13.5 s and 24.4 s and 4.6 s | – | –
C=CCOc1ccc(CN(CC=Cc2ccccc2)CCOC)cc1 [Compound 4, N-(4-Allyloxybenzyl)-N-(2-methoxyethyl)-N-(3-phenyl-allyl)amine] | – | – | 10.2 | 10 s and 12.8 s and 14.5 s and 4.5 s and 10.4 s and 4.2 s and 9.6 s and 13.5 s and 16.3 s and 6.1 s | – | – | – | –
CCCCC/C=C\C/C=C\C/C=C\C/C=C\CCCC(=O)Nc1ccc(O)cc1 [AM-404, N-(4-hydroxyphenyl)arachidonamide] | – | – | – | – | – | – | ~2000 | 2000
